Columns and labels:
[1] = tested on: LPS-IFN-γ stimulated macrophages; experiment: NO production of LPS-IFN-γ stimulated macrophages (cell type not specified; dose response, Table 2 and second Table 3); format: cell-based, murine; details: LPS-INF-γ stimulated
Description: (§1) Treatment of primary macrophages and RAW 264.7 cells. […] Following 3 h incubation, at 37 C, 5% CO2 (macrophages were allowed to attach) cells were stimulated with LPS (0.5 μg/ml) and IFN-γ (100 U/ml) in the absence or presence of various concentrations of ILK inhibitors (all treatments were replicated six times). Cells were incubated for an additional 24 h, and cell free culture supernatants from each well were collected for NO and cytokine determination. The remaining cells were stained with crystal violet to determine effect of the inhibitors on cell survival.
(§2) NO production. Following stimulation, the production of NO was determined by assaying culture supernatants for NO2^−, a stable reaction product of NO with molecular oxygen. Briefly, 100 μl of culture supernatant was reacted with an equal volume of Griess reagent at room temperature for 10 min. The absorbance at 550 nm was determined. All measurements were performed six times. The concentration of NO2^−was calculated by comparison with a standard curve prepared using NaNO2.

[2] = tested on: IL-6 release in macrophages; experiment: LPS-IFN-γ-induced IL-6 release in macrophages (ELISA); format: cell-based, murine
Description: (§3) Treatment of primary macrophages and RAW 264.7 cells. Primary macrophages (1.5×10^5 cells/well) and RAW 264.7 (4×10^4 cells/well) cells were grown in 96-well plates (nitrite assay), or 6-well plates (2×10^6 cells/well) for measurement of iNOS and COX-2 expression. Following 3 h incubation, at 37 C, 5% CO2 (macrophages were allowed to attach) cells were stimulated with LPS (0.5 μg/ml) and IFN-γ (100 U/ml) in the absence or presence of various concentrations of ILK inhibitors (all treatments were replicated six times). Cells were incubated for an additional 24 h, and cell free culture supernatants from each well were collected for NO and cytokine determination. The remaining cells were stained with crystal violet to determine effect of the inhibitors on cell survival.
Enzyme immunoassays for mouse IL-6. IL-6 levels were determined with PharMingen's OptElA ELISA set developed using an anti-mouse IL-6 Ab pair and mouse rIL-6 standard (PharMingen). Maxisorp F16 multiwell strips (Nunc, Roskilde, Denmark) were coated with anti-mouse IL-6 capture Ab (at recommended concentration) in 0.1 M NaHCO3, pH 9.5, 100 μl/well, overnight at 4° C. Plates were washed three times with 0.05% Tween 20 in PBS (PBST) and blocked for 1 h at room temperature with 200 μl/well of 10% FCS in PBS (blocking and dilution buffer). […] Absorbance was read at 450 nm with an EL 312e microplate reader. […]

[3] = tested on: iNOS; experiment: iNOS protein expression in LPS-IFN-γ stimulated macrophages (western blot); format: cell-based, murine; details: Macrophages, LPS-INF-γ stimulated
Description: (§4) Western blot analysis. After incubation with the indicated stimuli in the presence of ILK inhibitors, cells (duplicate samples, 2×10^6cell/6-wells plate) were washed in PBS and lysed on ice in 60 μl of lysis buffer. The protein content of each sample was determined using the Bradford protein assay kit (Bio-Rad, Richmond, Calif.). Absorbance was measured at 750 nm with a Beckman DU530 spectrophotometer (Palo Alto, Calif.). Proteins were mixed with […] sample buffer. Following separation of proteins by SDS-PAGE, using 8% bis-acrylamide in the separation gel, the proteins were transferred from the gels onto PVDF membranes using a MiniProtean III Cell (Bio-Rad), at 100 V for 1.5 h. Equal amounts of protein (5 μg) were loaded onto SDS-PAGE gels and examined by Western blot analysis with anti-Actin, anti-iNOS, anti-COX-2 murine monoclonal antibodies according to the manufacturers specifications (Transduction Laboratories). Primary Abs, in 5% blocking buffer (5% NFM/TTBS), were incubated with blots 2 h or overnight at 4° C., followed by incubation with peroxidase-conjugated secondary antibody. Chemiluminescence substrates were used to reveal positive bands. The bands were exposed on x-ray films. […] The Multi-Analyst/PC system from Biorad is being used to quantitate the bands of the expressed protein on the film. […] White light is chosen as the selected light source, thus the signal strength is measured in OD (optic density) units. […]
(§5) Effects of ILK inhibitors on the LPS-IFN-γ-induced iNOS and COX-2 expression NO production requires that iNOS be enzymatically activity, therefore experiments were performed to examine whether the inhibitory effect of ILK inhibitors was mediated by […] iNOS protein synthesis or effects on the activity of existing enzyme. Stimulated cells were treated with ILK inhibitors (25 μM), and lysed 16 h later and a western blot analysis was performed to quantitate iNOS protein expression. […]

[4] = tested on: COX-2; experiment: COX-2 protein expression in LPS-IFN-γ stimulated macrophages (western blot); format: cell-based, murine; details: Macrophages, LPS-INF-γ stimulated
Description: as §4, with “Laboratories).” for “Laboratories). Primary Abs, in 5% blocking buffer (5% NFM/TTBS), were incubated with blots 2 h or overnight at 4° C., followed by incubation with peroxidase-conjugated secondary antibody. Chemiluminescence substrates were used to reveal positive bands. The bands were exposed on x-ray films.”
as §5
Nitric oxide and Prostaglandin E2 are two pleiotropic mediators produced at inflammatory sites by the inducible enzymes iNOS and cyclooxygenase-2 (COX-2), respectively. […] Finally, we evaluated the in-vitro effects of compounds on production of MCP-1 chemokine by TNF-α stimulated HUVEC cells. […]

[5] = tested on: BALB/c cells (primary peritoneal macrophages); experiment: LPS-IFN-γ-induced macrophage NO production (Griess nitrite assay), BALB/c cells; format: cell-based, mouse
Description: (§6) Isolation of primary mouse macrophages. Peritoneal exudate macrophages were isolated by peritoneal lavage with ice-cold sterile physiological saline 24 h after intraperitoneal injection of BALB/c and CB57BL/6 mice with 0.3 ml of sterile Zymosan A (1 mg/0.5 ml 0.9% saline). Cells were washed, resuspended in RPMI 1640 supplemented with 2 mM L-glutamine, 100 units/ml penicillin, 100 μg/ml streptomycin, and 5% FBS.
as §3, §2
(§7) Effects of ILK inhibitors on LPS-IFN-γ-induced NO release. […] […] To compare the effect of the compounds across three different cell types, the NO release for each cell type was expressed relative to DMSO treated cells. […] For example, macrophages from Balb/c and C57BL/6 mice responded similarly to the treatment with the compounds.

[6] = tested on: C57BL/6 cells (primary peritoneal macrophages); experiment: LPS-IFN-γ-induced macrophage NO production (Griess nitrite assay), C57BL/6 cells; format: cell-based, mouse
Description: as §6, §3, §2, §7

[7] = tested on: RAW 264.7 cells; experiment: LPS-IFN-γ-induced macrophage NO production (Griess nitrite assay), RAW 264.7 cells; format: cell-based, murine
Description: RAW 264.7 cells. RAW 264.7 cells, a murine macrophage cell line, were obtained from American Type Culture Collection (ATCC, Manassas, Va.) and cultured in DMEM supplemented with 10% FCS. Each treatment was performed in triplicate wells. RAW 264.7 cells (Balb/c background) produce a significant amount of nitric oxide upon treatment with IFN-γ alone, but require LPS for full activation. This property makes their behavior more like that of normal macrophages obtained from commonly used strains of mice.
as §1, §2
Effects of ILK inhibitors on LPS-IFN-γ-induced NO release. […] […] To compare the effect of the compounds across three different cell types, the NO release for each cell type was expressed relative to DMSO treated cells.

[8] = tested on: BALB/c cells (primary peritoneal macrophages); experiment: Cell survival by crystal violet staining, BALB/c cells; format: cell-based; details: BALB/c cells
Description: as §1
(§8) Effect of ILK Inhibitors on suppression of NO production and cell survival. Twenty-four hours following treatment with the ILK inhibitors, aliquots from the cell-free supernatants were assayed for NO and IL-6 release. Surviving cells were stained and fixed (crystal violet 0.05% in 20% ethanol), to determine if the decrease in NO production was related to a decrease in cell number due to toxicity of the compounds.

[9] = tested on: C57BL/6 cells (primary peritoneal macrophages); experiment: Cell survival by crystal violet staining, C57BL/6 cells; format: cell-based
Description: as §1, §8

[10] = tested on: RAW 264.7 cells; experiment: Cell survival by crystal violet staining, RAW 264.7 cells; format: cell-based
Description: as §3
as §8, with “compounds. […] Only those compounds that induced strong inhibition of NO release, and caused no significant cell death were selected for further evaluation.” for “compounds.”

[11] = tested on: HUVEC cells; experiment: In vitro Matrigel morphogenesis (tube formation) assay of VEGF stimulated HUVEC cells; format: cell-based, human; details: 100 mM (so in the source)
Description: In Vitro Angiogenesis. […] After 5 hours of incubation in a 5% CO2-humidified atmosphere at 37 °C, the three-dimensional organization of the cells was examined using an inverted photomicroscope. The cells were fixed with Crystal Violet (0.05% in 20% ethanol) and digitally photographed.
To determine the anti-angiogenic properties of ILK inhibitors, an in vitro Matrigel morphogenesis assay was established. This assay evaluates the ability of endothelial cells to differentiate into capillary-like structures, a crucial step during neovascularization. HUVEC cells when stimulated with VEGF and seeded onto Matrigel rapidly attach to the matrix and begin to migrate and interact with the extracellular matrix proteins present in the Matrigel. […] These capillary-like structures can be assessed by histology (FIG. 2). Samples are cut on a cross section and subsequent viewed using an electron microscope. Typically, cylindrical formations with a lumen are observed. A distinct difference in the morphology of tube formation on Matrigel, compared to other in vitro angiogenesis assays is a reduction in the proliferation of endothelial cells. […] Using this model system, both inhibitors and stimulators of angiogenesis can be assessed prior to in vivo testing.
The assay was established and reproducibility confirmed. SU5416, shown to inhibit angiogenesis in other assays, was also evaluated. […]

SMILES | NO inhibition (%) ([5]; 0.5 mM) | NO release (%) ([5]; 0.5 mM) | NO inhibition (%) ([5]; 1 mM) | NO release (%) ([5]; 1 mM) | NO inhibition (%) ([6]; 0.5 mM) | NO release (%) ([6]; 0.5 mM) | NO inhibition (%) ([6]; 1 mM) | NO release (%) ([6]; 1 mM) | NO inhibition (%) ([7]; 0.5 mM) | NO release (%) ([7]; 0.5 mM) | NO inhibition (%) ([7]; 1 mM) | NO release (%) ([7]; 1 mM) | Survival (%) ([8]; 0.5 mM) | Survival (%) ([8]; 1 mM) | Survival (%) ([9]; 0.5 mM) | Survival (%) ([9]; 1 mM) | Survival (%) ([10]; 0.5 mM) | Survival (%) ([10]; 1 mM) | also measured
NC1=NN=C(N)C1/N=N/c1ccc(F)c(C(F)(F)F)c1 [4-[(4-fluoro-3-trifluoromethylphenyl)hydrazono]-4H-pyrazole-3,5-diamine] | – | – | – | – | – | – | – | – | – | – | – | – | – | – | – | – | – | – | NO (%) [1]: 74%; inhibition at 25 µM ([2]; Mus musculus, Macrophage, 25 μM, 24 h, LPS (0.5 μg) IFN-γ (100 U)): 63%; INOS (%) [3]: 88%; COX-2 (%) [4]: 67%
C[C@@H]1C[C@H]2[C@@H]3CCC4=CC(=O)C=C[C@]4(C)[C@@]3(F)[C@@H](O)C[C@]2(C)[C@@]1(O)C(=O)CO [Dex, Dexamethasone] | 28% | 60.6% | 36% | 46.7% | 32% | 67.9% | 53% | 46.6% | −6% | 103.6% | −9% | 87.1% | 84% | 73% | 87% | 68% | 98% | 80% | –
CNC(=N)NCCC[C@H](N)C(=O)O [L-NMMA, N^G-Monomethyl-L-arginine] | 92% | 7.9% | 97% | 3.1% | 92% | 8.3% | 99% | 1.1% | 52% | 44.2% | 63% | 31.7% | 97% | 94% | 97% | 99% | 92% | 86% | –
Cc1cc(C)c(/C=C2\C(=O)Nc3ccccc32)[nH]1 [SU5146, reference compound] | – | – | – | – | – | – | – | – | – | – | – | – | – | – | – | – | – | – | Effect on endothelial cell morphogenesis (in words) [11]: did not affect endothelial cell morphogenesis
C[C@]12CCC(=O)C=C1CC[C@@H]1[C@@H]2[C@@H](O)C[C@@]2(C)[C@H]1CC[C@]2(O)C(=O)CO [hydrocortisone, Hydrocortisone, reference compound] | – | – | – | – | – | – | – | – | – | – | – | – | – | – | – | – | – | – | Effect on IL-6 release (in words) ([2]; 50 μM, added at the onset of the culture): moderately suppressed IL-6 release

Reference: patent publication US20050220779A1, “Integrin linked kinase modulation of macrophage activation” (priority 2001, published 2005)
